Molecules are shown by their SMILES. Converted amounts (≈) assume the structure as drawn.

These results are taken from PubChem BioAssay AID1996.

The conditions of the data set: buffer; pH 7.4; 200.0 µM.
As for `CCCn1c(=O)c2[nH]c(-c3ccc(S(=O)(=O)O)cc3)nc2n(CCC)c1=O`, the solubility (kinetic) is > 58.9 µg/mL.
For `CN(C)P(=O)(NC(=O)c1cccn1C)N(C)C`, the solubility (kinetic) was > 38.7 µg/mL.
Consider `O=Cc1c(NCc2ccc(F)cc2)c2ccccc2[nH]c1=O`, for which the solubility (kinetic) was 2.6 µg/mL (≈ 8.77 µM).
For `C=CCSc1nc2c(c(-c3ccsc3)c1C#N)CN(C)CC2` the value was 23 µg/mL (≈ 70.2 µM); for `CCOC(=O)c1c(/N=C/N(C)C)sc(C)c1C`, 37.3 µg/mL (≈ 147 µM); for `CC(=O)n1cc(Nc2ccc([N+](=O)[O-])cc2)c2ccccc21`, 4.6 µg/mL (≈ 15.6 µM).
As to `Cc1ccccc1NC(=O)Cc1c[nH]c2ccccc12`, the solubility (kinetic) was 39.5 µg/mL (≈ 149 µM).
In the case of `CC(C)C(NC(=O)c1ccccc1F)C(=O)NCC(c1ccco1)N1CCCCC1` (configuration not stated), the solubility (kinetic) was > 62.3 µg/mL.
With `Cc1onc(-c2ccccc2)c1NC(=O)N(CCC#N)Cc1ccccc1`, the kinetic solubility stood at 45.4 µg/mL (≈ 126 µM).
Consider `O=C(CN1C(=O)NC2(CCCCCC2)C1=O)c1ccccc1`, for which the kinetic solubility was > 45.1 µg/mL.
`Cc1cccc(C(=O)Nc2scc(-c3ccc(Br)cc3)c2C(=O)O)c1` registered a solubility (kinetic) of 3.6 µg/mL (≈ 8.65 µM).
The result for `O=C(Cc1ccccc1F)NCC1(N2CCOCC2)CCCCC1` reads > 50.2 µg/mL.
The result for `COc1ccc(C(OC(=O)c2ccco2)C(=O)NC(C)(C)C)cc1` (configuration not stated) reads > 49.7 µg/mL.
The result for `O=C(O)CC(NC(=O)CCc1ccccc1)c1ccc(Cl)cc1` (configuration not stated) reads 44.5 µg/mL (≈ 134 µM).
For `COC(=O)c1cc(S(=O)(=O)N2CCCCC2)c[nH]1`, the solubility (kinetic) was > 40.8 µg/mL.
`CC(=O)OC1CC(c2cc(C(C)(C)C)c(O)c(C(C)(C)C)c2)=NO1` (configuration not stated) registered a solubility (kinetic) of 7.7 µg/mL (≈ 23.1 µM).
In turn, `COC(=O)c1ccc(C(=O)Nc2ccc(C(C)C)cc2N)cc1` showed a kinetic solubility of 2.5 µg/mL (≈ 8 µM).
For `COC(=O)CSc1nc(C)c2c(n1)CCCC2` the value was 37.6 µg/mL (≈ 149 µM).
Take `CC1(C)CC(=O)C2=C(C1)NC(=O)NC2c1ccc([N+](=O)[O-])cc1` (configuration not stated): the kinetic solubility is > 47.3 µg/mL.
For `CCOc1ccc2nc(N(CCN(C)C)C(=O)c3cc4ccccc4cc3OC)sc2c1.Cl` the value was 4.2 µg/mL.
Regarding `CN(CC(=O)Nc1c(Cl)cccc1Cl)C(=O)c1cccn1C`, the solubility (kinetic) is > 51 µg/mL.
For the compound `COc1ccc(S(=O)(=O)N2CCc3ccccc32)cc1C(=O)NCCc1ccc(S(N)(=O)=O)cc1`, the solubility (kinetic) worked out at 3.7 µg/mL (≈ 7.18 µM).
In the case of `Cc1[nH]c2ccc(C(=O)N3CCN(C)CC3)cc2c1C`, the solubility (kinetic) is > 40.7 µg/mL.
`COCc1cc(C)nc(SCc2ccccc2)c1C#N` showed a kinetic solubility of 3.4 µg/mL (≈ 12 µM).
As for `CNCc1sccc1C.Cl`, the kinetic solubility was > 26.7 µg/mL.
For the compound `Cc1nc(C)c(C(=O)NCCC(c2ccccc2)c2ccccc2)o1`, the solubility (kinetic) came to 43.8 µg/mL (≈ 131 µM).
Compound `COc1ccc(C(=O)Nc2cc3c4c(c2)C(C)C(=O)N4CCC3)cc1` (configuration not stated) yielded a solubility (kinetic) of 38.6 µg/mL (≈ 115 µM).
`CC(C)(C)S(=O)(=O)c1cnc(-c2ccccn2)nc1N` came in with a solubility (kinetic) of 34.1 µg/mL (≈ 117 µM). The solubility kinetic values of the last two compounds are within 1.5-fold of each other.
As to `CC1(C(=O)Nc2nc3ccc(S(C)(=O)=O)cc3s2)CC1(Cl)Cl` (configuration not stated), the kinetic solubility stood at 52.1 µg/mL (≈ 137 µM).
For `N#Cc1ccc(CN2C(=O)NC3(CCCCCC3)C2=O)cc1` the value was 25.7 µg/mL (≈ 86.4 µM).
For `CC(C)Cc1nc(N2CCNCC2)c(C#N)c2c1CCC2` the value was 41.1 µg/mL (≈ 145 µM); for `CN(Cc1cccc(Cl)c1Cl)C(=O)CCNC(=O)c1ccco1`, > 53.3 µg/mL; for `CCC(=NCc1ccco1)c1c(O)n(-c2ccccc2C)c(=O)[nH]c1=O`, > 53 µg/mL.
For `O=c1cc(C(F)(F)F)[nH]c(=S)n1-c1ccccc1` the value was > 40.8 µg/mL.
Regarding `O=C(COc1ccc(Cl)cc1)NCCCNC(=O)c1cnccn1`, the solubility (kinetic) is > 52.3 µg/mL.
Regarding `CC(NC(N)=O)C(=O)NCC(=O)OCc1ccccc1` (configuration not stated), the kinetic solubility is > 41.9 µg/mL.
The compound `CCOc1ccccc1C(=O)NCC(=O)NCCCSc1ccccc1` showed a solubility (kinetic) of 2.5 µg/mL (≈ 6.71 µM).
In the case of `CC(C)(C)NS(=O)(=O)c1ccc(NC(=O)C2CCCCC2)cc1`, the kinetic solubility amounted to 11.5 µg/mL (≈ 34 µM).
Consider `Cc1ccc2nc(-c3ccccc3)c(CC(=O)O)c(C(=O)O)c2c1`, for which the kinetic solubility is > 48.2 µg/mL.
For `Cn1cccc1C(=O)OCC(=O)NCCCc1ccccc1` the value was > 45.1 µg/mL; for `O=C(O)c1ccccc1NS(=O)(=O)c1ccc2ccccc2c1`, > 49.1 µg/mL; for `O=C(CCCC(=O)c1ccccc1)Nc1ccc(F)cc1`, 4.9 µg/mL (≈ 17.2 µM).
As to `O=C(Nc1ccc(O)cc1)c1ccccc1OCc1ccccc1`, the kinetic solubility is < 0.7 µg/mL.
For `O=C1c2ccccc2C2(c3ccccc3)NCCCN12` (configuration not stated) the value was > 39.6 µg/mL; for `COC(=O)c1ccc(/C=C/C(=O)OCC(=O)Nc2sccc2C(N)=O)cc1`, 3.9 µg/mL (≈ 10 µM); for `CN(C)C(=O)CSc1ncccc1-c1nc2ccccc2[nH]1`, 42.6 µg/mL (≈ 136 µM).
Turning to `Cc1nc2cc(Cl)c(Cl)cc2n1CCCO`, the kinetic solubility came out at 33.9 µg/mL (≈ 131 µM).
Turning to `COc1ccccc1CC(=O)N(Cc1ccccc1)c1cccc(C)c1`, the solubility (kinetic) was 8.9 µg/mL (≈ 25.8 µM).
`O=C(COC(=O)c1cccc(S(=O)(=O)NCc2ccccc2)c1)NC1CC1` yielded a kinetic solubility of 15.2 µg/mL (≈ 39.1 µM).
The result for `COc1ccc(CCNC(=O)COC(=O)c2ccc(S(=O)(=O)N3CCCC3)cc2)cc1OC` reads 7.2 µg/mL (≈ 15.1 µM); that for `CCCn1c(N2CCN(C(=O)/C=C/C(=O)O)CC2)nc2ccccc21`, > 51.4 µg/mL; that for `COc1ccc(C(=O)Nn2c(C)nc3ccccc3c2=O)cc1`, > 46.4 µg/mL.
The result for `CC(=O)N1CCC(C(=O)Nc2ccc3c(c2)CCC3)CC1` reads > 43 µg/mL; that for `CCOc1ccc(C(=O)n2cc(C(=O)OC)c3ccccc32)cc1`, < 0.7 µg/mL; that for `O=C(O)c1ccccc1C(=O)NCCCn1ccnc1`, > 41 µg/mL.
Take `COC(=O)c1csc(S(=O)(=O)N2CCOCC2)c1OC`: the kinetic solubility was > 48.2 µg/mL.
For `Clc1ccccc1N=C1SCCS1` the value was 18.2 µg/mL (≈ 79.2 µM).
Consider `CC(C)OCCCNC(=O)COc1ccc2oc3c(c2c1)CCCC3`, for which the kinetic solubility came to 48.1 µg/mL (≈ 139 µM). Against the preceding compound, the solubility kinetic is about 2.6-fold higher.
`CCN(CC)S(=O)(=O)c1c(OC)cc(C)c(Cl)c1C` had a kinetic solubility of 18.3 µg/mL (≈ 59.8 µM).
For `Cc1ccc(NC(=O)COC(=O)c2ccco2)cc1C` the value was 23.3 µg/mL (≈ 85.3 µM).
`Cc1ccc(C23CC4CC(CC(C(=O)N(C)C)(C4)C2)C3)cc1` returned a kinetic solubility of 2.4 µg/mL (≈ 8.07 µM).
The result for `O=[N+]([O-])c1cc(F)c(N2CCCC2)cc1Br` reads 1.6 µg/mL (≈ 5.53 µM); that for `Nc1ccccc1N=c1ssnc1Cl`, > 36.6 µg/mL.
For `CC(=O)Nc1ccc(N2Cc3ccccc3C2)cc1`, the solubility (kinetic) was 18.7 µg/mL (≈ 74.1 µM).
The result for `O=C(NCc1ccccn1)C(=O)NCC(c1ccco1)N1CCOCC1` (configuration not stated) reads > 53.8 µg/mL.
The result for `O=C(CN1C(=O)NC2NC(=O)NC21)NC1CCCCC1` (configuration not stated) reads > 42.2 µg/mL.
For `Cc1ccc(CNC(=O)C2CCCN(c3cnccn3)C2)cc1` (configuration not stated) the value was > 46.6 µg/mL; for `Cc1cc(C)c(C#N)c(Nc2cccc(C)c2C)n1`, 1 µg/mL (≈ 3.98 µM); for `COc1ccc(NC(=O)CC2C(=O)NCCN2C(=O)c2ccccc2)cc1` (configuration not stated), > 55.1 µg/mL.
Consider `CCOc1ccc2[nH]cc(C(=O)NCc3ccccc3)c(=O)c2c1`, for which the solubility (kinetic) stood at 0.9 µg/mL (≈ 2.79 µM).
The compound `COc1ccccc1CNC(=O)c1[nH]c(C)c(C(C)=O)c1C` yielded a kinetic solubility of 13.3 µg/mL (≈ 44.3 µM).
The result for `Cc1cccc(C)c1NC(=S)NCCSc1ccc(Cl)cc1` reads 3.3 µg/mL (≈ 9.4 µM); that for `CCCc1cc(C(=O)Nc2ccc(CC)cc2)no1`, 1.4 µg/mL (≈ 5.42 µM).
For `NC(=O)c1ccsc1NC(=O)COC(=O)c1cnccn1` the value was > 45.9 µg/mL; for `Cc1ccc2c(CN3CC(C)CC(C)C3)cc(=O)oc2c1C` (configuration not stated), 3.3 µg/mL (≈ 11 µM).
As to `CCOC(=O)Cc1cc(=O)n2[nH]c(C)c(-c3ccccc3OC)c2n1`, the kinetic solubility is > 51.2 µg/mL.
The result for `COC(=O)c1ccc(NC(=O)CCOc2ccccc2)cc1` reads 4.5 µg/mL (≈ 15 µM).
The result for `COc1ccc(OC(C)C(=O)NC2CCCCCCC2)cc1` (configuration not stated) reads 45.1 µg/mL (≈ 148 µM).
The result for `NC(=O)C1CCN(C(=O)c2cc3c(s2)CCCC3)CC1` reads 43.7 µg/mL (≈ 149 µM); that for `CC(C)(C)NC(=O)COC(=O)c1cc(Cl)ccc1[N+](=O)[O-]`, > 47.2 µg/mL.
Regarding `O=[N+]([O-])c1ccc(S(=O)(=O)NCCc2ccncc2)cc1`, the kinetic solubility was found to be 12.8 µg/mL (≈ 41.6 µM).
`C=CCC(=O)N1CCCC(CCC(=O)NCc2ccccc2F)C1` (configuration not stated): the solubility (kinetic) was > 49.9 µg/mL.
The result for `Cc1ccccc1/C=C/c1nc2ccccc2c(=O)[nH]1` reads 0.4 µg/mL (≈ 1.52 µM); that for `CC(C)(C)c1ccc(C(=O)NCCNC(=O)c2ccco2)cc1`, 39.5 µg/mL (≈ 126 µM).
The result for `CCc1sc(C(=O)Nc2nccs2)cc1C` reads 3.6 µg/mL (≈ 14.3 µM); that for `Cc1cc(=O)n(CC(=O)Nc2cc(Cl)ccc2C)c(C(C)C)n1`, 40.4 µg/mL (≈ 121 µM).
With `CC(c1ccccc1)N1CCN(C(=O)CCl)CC1.Cl` (configuration not stated), the solubility (kinetic) was 43.3 µg/mL.
For `C=CCn1c(SCC(N)=O)nc2nc3c(cc2c1=O)COC(C)(C)C3` the value was 46.6 µg/mL (≈ 129 µM); for `Nc1nc(Nc2cccc(Cl)c2)nc(NCCO)c1[N+](=O)[O-]`, 6.5 µg/mL (≈ 20 µM); for `O=C(O)CC(CC(=O)Nc1ccc(-c2ccccc2)cc1)c1ccccc1` (configuration not stated), > 53.9 µg/mL.
On to `COc1ccc(C(=O)NCC(=O)N/N=C/c2cccnc2)cc1`, for which the solubility (kinetic) was > 46.8 µg/mL.
For `C=CCn1c(O)c(C=Nc2ccc(CN3CCCCC3)cc2)c(=O)[nH]c1=S`, the solubility (kinetic) is 51.8 µg/mL (≈ 135 µM).
For `CC(=O)Nc1ccc(NC(=S)NC(=O)C2CC2)cc1` the value was 32.2 µg/mL (≈ 116 µM).
The result for `C=CCn1c(C)nc2ccccc2c1=O` reads > 30 µg/mL.
Regarding `Cc1ccc(NC(=S)NC(=O)Cc2ccccc2)c(O)c1`, the solubility (kinetic) worked out at 3.3 µg/mL (≈ 11 µM).
`CC(C)Oc1ccc(CNC(=O)Oc2ccccc2)cc1`: the solubility (kinetic) worked out at 25.5 µg/mL (≈ 89.4 µM).
As to `NC(=O)CN1CCN(Cc2ccc3c(c2)OCO3)CC1`, the solubility (kinetic) is > 41.6 µg/mL.
For the compound `O=C(NCCCn1ccnc1)C1CCN(S(=O)(=O)c2cc([N+](=O)[O-])ccc2Cl)CC1`, the solubility (kinetic) is > 68.4 µg/mL.
In the case of `O=C1c2cccc3c([N+](=O)[O-])ccc(c23)C(=O)N1O`, the kinetic solubility was > 38.7 µg/mL.
For `O=C(Nc1ccc([N+](=O)[O-])cc1)c1ccccc1` the value was 2.2 µg/mL (≈ 9.08 µM); for `O=C(O)CN1C(=O)C(=O)N(Cc2c(F)cccc2Cl)C1=O`, 45.5 µg/mL (≈ 145 µM).
`COC(=O)c1cc(=O)n2c(sc3ccccc32)c1C#N` came in with a solubility (kinetic) of 1.3 µg/mL (≈ 4.57 µM).
